Results taken from patent US7674819B2 (Warner-Lambert Company LLC, priority 2005, dated 2010).

Target: T1, hAR (Homo sapiens, UniProt P10275)
T1 sequence (P10275 1-920): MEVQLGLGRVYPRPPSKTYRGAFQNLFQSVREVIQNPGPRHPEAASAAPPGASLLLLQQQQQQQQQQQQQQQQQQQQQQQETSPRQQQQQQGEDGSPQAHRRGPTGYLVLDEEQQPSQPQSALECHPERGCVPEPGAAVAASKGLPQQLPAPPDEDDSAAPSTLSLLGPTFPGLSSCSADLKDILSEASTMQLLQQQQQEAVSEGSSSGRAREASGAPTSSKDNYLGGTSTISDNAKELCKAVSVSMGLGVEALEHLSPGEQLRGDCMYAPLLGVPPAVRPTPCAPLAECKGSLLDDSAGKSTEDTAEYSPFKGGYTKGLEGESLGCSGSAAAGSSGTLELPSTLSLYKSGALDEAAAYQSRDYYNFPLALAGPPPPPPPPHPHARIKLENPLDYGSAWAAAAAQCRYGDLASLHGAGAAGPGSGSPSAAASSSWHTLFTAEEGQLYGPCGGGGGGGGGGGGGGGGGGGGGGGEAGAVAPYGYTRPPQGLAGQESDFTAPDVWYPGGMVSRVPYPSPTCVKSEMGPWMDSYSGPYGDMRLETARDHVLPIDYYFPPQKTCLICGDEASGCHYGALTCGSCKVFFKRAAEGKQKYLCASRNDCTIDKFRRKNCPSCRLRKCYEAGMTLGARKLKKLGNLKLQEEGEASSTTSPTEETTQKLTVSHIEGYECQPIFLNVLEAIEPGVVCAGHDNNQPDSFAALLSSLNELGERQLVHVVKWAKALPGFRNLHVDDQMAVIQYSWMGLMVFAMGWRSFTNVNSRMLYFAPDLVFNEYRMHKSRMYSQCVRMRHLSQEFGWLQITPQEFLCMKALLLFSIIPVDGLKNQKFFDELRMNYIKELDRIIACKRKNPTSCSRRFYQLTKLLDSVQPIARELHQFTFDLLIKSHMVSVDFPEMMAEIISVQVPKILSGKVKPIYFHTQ
Assay: Competitive binding of 3H-DHT to baculovirus/Sf9 generated hAR extracts
Settings: IC50, concentration at which one half of maximum binding of 1 nM 3H-DHT to hAR is inhibited; one hour at 4° C.; mean of multiple tests
Description: The description below describes how the assay was carried out.
Competitive binding analysis was performed on baculovirus/Sf9 generated hAR extracts in the presence or absence of different concentrations of test agent and a fixed concentration of ^3H-dihydrotestosterone (^3H-DHT) as tracer. This binding assay method is a modification of a protocol previously described (Liao S., et. al. J. Steroid Biochem. 20:11-17 1984). Briefly, progressively decreasing concentrations of compounds are incubated in the presence of hAR extract (Chang et al. P.N.A.S. Vol. 89, pp. […], 1992), hydroxylapatite, and 1 nM^3H-DHT for one hour at 4° C. Subsequently, the binding reactions are washed three times to completely remove excess unbound ^3H-DHT. hAR bound ^3H-DHT levels are determined in the presence of compounds (i.e. competitive binding) and compared to levels bound when no competitor is present (i.e. maximum binding). Compound binding affinity to the hAR is expressed as the concentration of compound at which one half of the maximum binding is inhibited.

In order of rising IC50:
1. COc1ccc(-c2nnc(C(C)N3CC(C)(C)C(Oc4ccc(C#N)c(C(F)(F)F)c4)C3=O)o2)cc1 (stereo not shown) [Example 135, 4-(1-{1-[5-(4-methoxy-phenyl)-[1,3,4]oxadiazol-2-yl]-ethyl}-4,4-dimethyl-2-oxo-pyrrolidin-3-yloxy)-2-trifluoromethyl-benzonitrile]  44 nM
2. CC(c1nnc(-c2ccc(O)cc2O)o1)N1CC(C)(C)C(Oc2ccc(C#N)c(C(F)(F)F)c2)C1=O (stereo not shown) [Example 132, 4-(1-{1-[5-(2,4-dihydroxy-phenyl)-[1,3,4]oxadiazol-2-yl]-ethyl}-4,4-dimethyl-2-oxo-pyrrolidin-3-yloxy)-2-trifluoromethyl-benzonitrile]  52 nM
3. COc1ccccc1-c1nnc(C(C)N2CC(C)(C)C(Oc3ccc(C#N)c(C(F)(F)F)c3)C2=O)o1 (stereo not shown) [Example 133, 4-(1-{1-[5-(2-methoxy-phenyl)-[1,3,4]oxadiazol-2-yl]-ethyl}-4,4-dimethyl-2-oxo-pyrrolidin-3-yloxy)-2-trifluoromethyl-benzonitrile]  60 nM
4. Cc1ccc(-c2nnc(C(C)N3CC(C)(C)C(Oc4ccc(C#N)c(C(F)(F)F)c4)C3=O)o2)cc1 (stereo not shown) [Example 129, 4-[4,4-Dimethyl-2-oxo-1-[1-(5-p-tolyl-[1,3,4]oxadiazol-2-yl)-ethyl]-pyrrolidin-3-yloxy]-2-trifluoromethyl-benzonitrile]  63 nM
5. COc1cccc(-c2nnc(C(C)N3CC(C)(C)C(Oc4ccc(C#N)c(C(F)(F)F)c4)C3=O)o2)c1 (stereo not shown) [Example 134, 4-(1-{1-[5-(3-methoxy-phenyl)-[1,3,4]oxadiazol-2-yl]-ethyl}-4,4-dimethyl-2-oxo-pyrrolidin-3-yloxy)-2-trifluoromethyl-benzonitrile]  76 nM
6. CC(c1nnc(-c2ccccc2)o1)N1CC(C)(C)C(Oc2ccc(C#N)c(C(F)(F)F)c2)C1=O (stereo not shown) [Example 128, 4-[4,4-Dimethyl-2-oxo-1-[1-(5-phenyl-[1,3,4]oxadiazol-2-yl)-ethyl]-pyrrolidin-3-yloxy]-2-trifluoromethyl-benzonitrile]  82 nM

Same assay, conditions: concentration at which one half of maximum binding of 1 nM 3H-DHT to hAR is inhibited; one hour at 4° C.; mean of multiple tests; read-out: IC50

In order of falling IC50:
1. COc1cc(OC2C(=O)N(S(C)(=O)=O)CC2(C)C)ccc1C#N (stereo not shown) [Example 100D, 4-(1-Methanesulfonyl-4,4-dimethyl-2-oxo-pyrrolidin-3-yloxy)-2-methoxy-benzonitrile]  555 nM
2. CC1(C)CN(S(=O)(=O)c2ccccc2C#N)C(=O)C1Oc1ccc(C#N)c(C(F)(F)F)c1 (stereo not shown) [Example 91, 4-[1-(2-Cyano-benzenesulfonyl)-4,4-dimethyl-2-oxo-pyrrolidin-3-yloxy]-2-trifluoromethyl-benzonitrile]  508 nM
3. CCCC(=O)N1CC(C)(C)C(Oc2ccc(C#N)c(C(F)(F)F)c2)C1=O (stereo not shown) [Example 102, 4-(1-Butyryl-4,4-dimethyl-2-oxo-pyrrolidin-3-yloxy)-2-trifluoromethyl-benzonitrile]  418 nM
4. CCOc1cccc(-c2nnc(CN3CC(C)(C)C(Oc4ccc(C#N)c(C(F)(F)F)c4)C3=O)o2)c1 (stereo not shown) [Example 124, 4-{1-[5-(3-Ethoxy-phenyl)-[1,3,4]oxadiazol-2-ylmethyl]-4,4-dimethyl-2-oxo-pyrrolidin-3-yloxy}-2-trifluoromethyl-benzonitrile]  404 nM
5. CCC(CC)C(=O)N1CC(C)(C)C(Oc2ccc(C#N)c(C(F)(F)F)c2)C1=O (stereo not shown) [Example 100E, 4-[1-(2-Ethyl-butyryl)-4,4-dimethyl-2-oxo-pyrrolidin-3-yloxy]-2-trifluoromethyl-benzonitrile]  372 nM
6. CC1(C)CN(C(=O)c2cccs2)C(=O)C1Oc1ccc(C#N)c(C(F)(F)F)c1 (stereo not shown) [Example 108, 4-[4,4-Dimethyl-2-oxo-1-(thiophene-2-carbonyl)-pyrrolidin-3-yloxy]-2-trifluoromethyl-benzonitrile]  370 nM
7. CC1(C)CN(Cc2nnc(-c3cccc(Cl)c3)o2)C(=O)C1Oc1ccc(C#N)c(C(F)(F)F)c1 (stereo not shown) [Example 120, 4-{1-[5-(3-Chloro-phenyl)-[1,3,4]oxadiazol-2-ylmethyl]-4,4-dimethyl-2-oxo-pyrrolidin-3-yloxy}-2-trifluoromethyl-benzonitrile]  347 nM
8. Cc1noc(C)c1C(=O)N1CC(C)(C)C(Oc2ccc(C#N)c(C(F)(F)F)c2)C1=O (stereo not shown) [Example 106, 4-[1-(3,5-Dimethyl-isoxazole-4-carbonyl)-4,4-dimethyl-2-oxo-pyrrolidin-3-yloxy]-2-trifluoromethyl-benzonitrile]  342 nM
9. Cc1cc(S(=O)(=O)N2CC(C)(C)C(Oc3ccc(C#N)c(C(F)(F)F)c3)C2=O)c(C)s1 (stereo not shown) [Example 92, 4-[1-(2,5-Dimethyl-thiophene-3-sulfonyl)-4,4-dimethyl-2-oxo-pyrrolidin-3-yloxy]-2-trifluoromethyl-benzonitrile]  334 nM
10. CCCCS(=O)(=O)N1CC(C)(C)C(Oc2ccc(C#N)c(C(F)(F)F)c2)C1=O (stereo not shown) [Example 90, 4-[1-(Butane-1-sulfonyl)-4,4-dimethyl-2-oxo-pyrrolidin-3-yloxy]-2-trifluoromethyl-benzonitrile]  309 nM
11. CC(C)S(=O)(=O)N1CC(C)(C)C(Oc2ccc(C#N)c(C(F)(F)F)c2)C1=O (stereo not shown) [Example 79, 4-[4,4-Dimethyl-2-oxo-1-(propane-2-sulfonyl)-pyrrolidin-3-yloxy]-2-trifluoromethyl-benzonitrile]  305 nM
12. Cc1nc(C)c(S(=O)(=O)N2CC(C)(C)C(Oc3ccc(C#N)c(C(F)(F)F)c3)C2=O)s1 (stereo not shown) [Example 89, 4-[1-(2,4-Dimethyl-thiazole-5-sulfonyl)-4,4-dimethyl-2-oxo-pyrrolidin-3-yloxy]-2-trifluoromethyl-benzonitrile]  281 nM
13. Cc1cccc(-c2nnc(CN3CC(C)(C)C(Oc4ccc(C#N)c(C(F)(F)F)c4)C3=O)o2)c1 (stereo not shown) [Example 122, 4-[4,4-Dimethyl-2-oxo-1-(5-m-tolyl-[1,3,4]oxadiazol-2-ylmethyl)-pyrrolidin-3-yloxy]-2-trifluoromethyl-benzonitrile]  271 nM
14. CC1(C)CN(Cc2nnc(-c3ccc(Cl)cc3)o2)C(=O)C1Oc1ccc(C#N)c(C(F)(F)F)c1 (stereo not shown) [Example 125, 4-{1-[5-(4-Chloro-phenyl)-[1,3,4]oxadiazol-2-ylmethyl]-4,4-dimethyl-2-oxo-pyrrolidin-3-yloxy}-2-trifluoromethyl-benzonitrile]  250 nM
15. Cc1n[nH]c(C)c1S(=O)(=O)N1CC(C)(C)C(Oc2ccc(C#N)c(C(F)(F)F)c2)C1=O (stereo not shown) [Example 77, 4-[1-(3,5-Dimethyl-1H-pyrazole-4-sulfonyl)-4,4-dimethyl-2-oxo-pyrrolidin-3-yloxy]-2-trifluoromethyl-benzonitrile]  246 nM
16. CC1(C)CN(C2CCC2)C(=O)C1Oc1ccc(C#N)c(C(F)(F)F)c1 (stereo not shown) [Example 100F, 4-(1-Cyclobutyl-4,4-dimethyl-2-oxo-pyrrolidin-3-yloxy)-2-trifluoromethyl-benzonitrile]  243 nM
17. COC(=O)c1ccc(S(=O)(=O)N2CC(C)(C)C(Oc3ccc(C#N)c(C(F)(F)F)c3)C2=O)o1 (stereo not shown) [Example 100A, 5-[3-(4-Cyano-3-trifluoromethyl-phenoxy)-4,4-dimethyl-2-oxo-pyrrolidine-1-sulfonyl]-furan-2-carboxylic acid methyl ester]  242 nM
18. Cc1ccccc1-c1nnc(CN2CC(C)(C)C(Oc3ccc(C#N)c(C(F)(F)F)c3)C2=O)o1 (stereo not shown) [Example 111, 4-[4,4-Dimethyl-2-oxo-1-(5-o-tolyl-[1,3,4]oxadiazol-2-ylmethyl)-pyrrolidin-3-yloxy]-2-trifluoromethyl-benzonitrile]  239 nM
19. Cc1ccc(S(=O)(=O)N2CC(C)(C)C(Oc3ccc(C#N)c(C(F)(F)F)c3)C2=O)s1 (stereo not shown) [Example 85, 4-[4,4-Dimethyl-1-(5-methyl-thiophene-2-sulfonyl)-2-oxo-pyrrolidin-3-yloxy]-2-trifluoromethyl-benzonitrile]  233 nM
